Measurements taken from patent publication US6693102B2, “Pyridine-substituted pyrazolopyridine derivatives” (Bayer Aktiengesellschaft, priority 2000, dated 2004).

System: rabbit aorta rings
Test: Vasorelaxant action in vitro (phenylephrine-contracted rabbit aorta rings)
Settings: Oryctolagus cuniculus, phenylephrine contraction, 37° C., 0.1% DMSO
Method: Rabbits are stunned by a blow to the neck and exsanguinated. The aorta is removed, freed from adherent tissue, divided into rings 1.5 mm wide and individually transferred under a pretension to 5 ml organ baths containing carbogen-aerated Krebs-Henseleit solution of the following composition (mM) at 37° C.: NaCl: 119; KCl: 4.8; CaCl2×2H2O: 1; MgSO4×7H2O; 1.4; KH2PO4: 1.2; NaHCO3:25; Glucose: 10. The contractile force is determined using Statham UC2 cells, amplified and digitalized by means of A/D converters (DAS-1802 HC, Keithley Instruments Munich), and recorded in parallel on linear recorders. To produce a contraction, phenylephrine is added to the bath cumulatively in increasing concentration. After several control cycles, the substance to be investigated is investigated in each further passage in increasing dose in each case and the height of the contraction is compared with the height of the contraction reached in the last previous passage. From this, the concentration is calculated which is necessary in order to reduce the height of the control value by 50% (IC50). The standard administration volume is 5 μl and the proportion of DMSO in the bath solution corresponds to 0.1%.

Compound: Nc1nc(-c2nn(Cc3ccccc3F)c3ncccc23)ncc1-c1ccncc1 [Example 1, 2-[1-[(2-Fluorophenyl)methyl]-1H-pyrazolo[3,4-b]pyridin-3-yl]-5-(4-pyridinyl)-4-pyrimidinamine]
- IC50: 0.66 µM

Compound: Nc1nc(-c2nn(Cc3ccccc3F)c3ncccc23)nc(N)c1-c1ccncc1 [Example 4, 2-[1-(2-fluorobenzyl)-1H-pyrazolo[3,4-b]pyridine-3-yl]-5-(4-pyridinyl)-4,6-pyrimidine diamine]
- IC50: 1.21 µM
